Test results from PMC10121968, “Fosgonimeton, a Novel Positive Modulator of the HGF/MET System, Promotes Neurotrophic and Procognitive Effects in Models of Dementia” (Neurotherapeutics, 2022).
Non-standard residues stand in square brackets, D forms with d. Residues, ends and D or L forms follow the SMILES beside them. *: point of attachment. Hexanoyl = CCCCCC(=O)*; Ahx = NCCCCCC(=O)O

Key:
MET receptor = biological target: T1, MET receptor (Homo sapiens, UniProt P08581); test: Phosphorylated MET receptor (pMET) ELISA in HEK293 cell lysates; type: cell-based; settings: HEK293 cells, 1 ng/mL HGF, 0.001–100 nM, 15 min
T1 construct: pMET enzyme-linked immunosorbent assay (ELISA) of human embryonic kidney (HEK293) cell lysates; endogenous in cells; host or cells: HEK293 (ATCC CRL-1573)
Procedure: Human embryonic kidney (HEK293, ATCC CRL-1573) cells were grown at 37 °C, 5% CO2 in Dulbecco's Modified Eagle Medium (DMEM) + 10% fetal bovine serum (FBS) in T-75 flasks until approximately 90% confluent and then seeded in polystyrene-treated 6-well plates for at least 8 h in serum-free growth media. Recombinant HGF protein (R&D Systems, Minneapolis, Minnesota) with or without experimental small-molecule treatment cocktails (Jubilant Biosys, Uttar Pradesh, India) were prepared in DMEM + 0.1% FBS and added to wells in triplicate for 15 min. Cells were lysed with 180 μL ice-cold RIPA buffer including a phosphatase inhibitor (PhosphataseArrest, G-Biosciences, St. Louis, Missouri) on ice for 15 min and then cleared by centrifugation at 16,000 g. Bicinchoninic acid (BCA) assays of lysates were used to normalize protein concentration across samples. Phosphorylated MET receptor (pMET) enzyme-linked immunosorbent assay (ELISA) kit processing was carried out according to the manufacturer’s instructions (Phospho-MET [Tyr1234/1235] Sandwich ELISA Kit, CST #7227C, Cell Signaling Technology, Danvers, Massachusetts). Raw absorbance signals were scaled between subthreshold (1 ng/mL HGF) and saturating (10 ng/mL HGF) controls such that HGF 1 ng/mL = 1 and HGF 10 ng/mL = 10. The statistical difference from subthreshold control was determined by Student’s t-test. […]

[1] = tested on: rat scopolamine amnesia model; test: Scopolamine Morris water maze study; type: in vivo; settings: 1 mg/kg SC
Procedure: Animals were maintained in accordance with the National Institute of Health Guide for the Care and Use of Laboratory Animals. Rats (14-week-old male Sprague Dawley) from Simonsen laboratories (Gilroy, CA) were used in the scopolamine Morris water maze study. This study was performed at Washington State University and procedures were approved by the Washington State University Institutional Animal Care and Use Committee.
Animals were anesthetized with ketamine hydrochloride plus xylazine (70 mg/kg and 7 mg/kg intraperitoneally, respectively). An intracerebroventricular (ICV) guide cannula (PE-60; Clay Adams, Parsippany, NY) was stereotaxically positioned (model 900; David Kopf Instruments, Tujunga, CA) in the right hemisphere of the brain 1.0 mm posterior and 1.5 mm lateral to the bregma. The guide cannula measured 1.5 cm in length with a heat bulge at 2.5 mm from the beveled tip to control insertion depth. Once in position, the cannula was secured to the skull with screws and dental cement. Animals were housed individually and hand-gentled for 6 days of postsurgical recovery. Histologic verification of cannula placement was accomplished by ICV injection of 4 μL cresyl violet after completion of behavioral testing. Animals for which cannulas were improperly placed were removed from the study.
The Morris water maze consisted of a 183-cm diameter, 64-cm deep tank with a clear circular platform (16-cm diameter) placed 30 cm from the maze wall and submerged 1 cm below the surface of the 26.7 °C water. The maze was virtually divided into 4 equal quadrants with the platform centered in 1 quadrant. Eight visual cues were randomly placed on the maze wall and these cues remained consistent throughout the trials.
Animals received either fosgo-AM (1 mg/kg in DMSO) or volume-matched vehicle (DMSO) by subcutaneous (SC) injection 45 min before testing, followed by ICV injection of scopolamine hydrobromide (105 nmol in 4 μL artificial cerebrospinal fluid [aCSF] over a duration of 40 s) 20 min before testing. […]
Probe trials were conducted on day 9 to determine learning persistence. […] The percentage of trial time spent within the platform region, the number of times that the animal crossed into the platform region, and the average distance from the center of the platform region were recorded. The swimming patterns of the rats were recorded using video tracking software (MediaRecorder and EthoVision software, Noldus, VA, USA).
The daily escape latency (defined as the mean latency to find the platform each day) was calculated for each animal. […] Data collected during the probe trials were assessed for normality (Shapiro–Wilk) and homoscedasticity (Brown-Forsythe) and subsequently analyzed using one-way ANOVA with Bonferroni post hoc tests compared with scopolamine + vehicle controls. […]

[2] = Simulated intestinal and gastric fluid stability; type: in vitro ADME; settings: 1 h, 5 µM, 37 °C
Procedure: Simulated intestinal and gastric fluid studies were contracted to Quintara Discovery Inc, Hayward, California. Simulated intestinal fluid was freshly prepared with 8.7 mM NaOH, 28.65 mM NaH2PO4, 5.85 mM NaCl, with a final pH of 6.8. […] was added to a final concentration of 0.32%. Simulated gastric fluid was prepared with 34.2 mM NaCl. The pH was adjusted to 1.2, and […] was added to a final concentration of 1%. Fosgo-AM was added to the simulated fluids to achieve a concentration of 5 µM. After mixing, samples were transferred to 96-well plates in duplicate (25 μL/well) and incubated at 37 °C. At time 0, 1, 2, and 4 h, 150 μL quench solution (100% acetonitrile with 0.1% formic acid) and bucetin internal standard was added to the appropriate wells. Plates were sealed and centrifuged at 4 °C for 15 min at 4000 rpm. The supernatant was transferred to fresh plates for liquid chromatography/[…] mass spectrometry (LC/MS/MS) analysis. The extent of metabolism was calculated as the disappearance of the test compound compared with the time = 0 incubations.

[3] = Fosgonimeton CNS distribution in mice; type: in vivo, mouse; settings: 5 mg/kg fosgonimeton IV, whole brain, 0.16 h
Procedure: Four C57BL/6 mice—2 males and 2 females—were treated with 5 mg/kg fosgonimeton via intravenous (IV) injection. At 0.16 h after dosing, animals were humanely killed and perfused with normal saline. The whole brain was collected and homogenized before determination of fosgonimeton and fosgo-AM tissue penetration by LC/MS/MS.

[4] = probe trial day 9, vs scopolamine + vehicle

T1 sequence (P08581 308-1390 limits assumed): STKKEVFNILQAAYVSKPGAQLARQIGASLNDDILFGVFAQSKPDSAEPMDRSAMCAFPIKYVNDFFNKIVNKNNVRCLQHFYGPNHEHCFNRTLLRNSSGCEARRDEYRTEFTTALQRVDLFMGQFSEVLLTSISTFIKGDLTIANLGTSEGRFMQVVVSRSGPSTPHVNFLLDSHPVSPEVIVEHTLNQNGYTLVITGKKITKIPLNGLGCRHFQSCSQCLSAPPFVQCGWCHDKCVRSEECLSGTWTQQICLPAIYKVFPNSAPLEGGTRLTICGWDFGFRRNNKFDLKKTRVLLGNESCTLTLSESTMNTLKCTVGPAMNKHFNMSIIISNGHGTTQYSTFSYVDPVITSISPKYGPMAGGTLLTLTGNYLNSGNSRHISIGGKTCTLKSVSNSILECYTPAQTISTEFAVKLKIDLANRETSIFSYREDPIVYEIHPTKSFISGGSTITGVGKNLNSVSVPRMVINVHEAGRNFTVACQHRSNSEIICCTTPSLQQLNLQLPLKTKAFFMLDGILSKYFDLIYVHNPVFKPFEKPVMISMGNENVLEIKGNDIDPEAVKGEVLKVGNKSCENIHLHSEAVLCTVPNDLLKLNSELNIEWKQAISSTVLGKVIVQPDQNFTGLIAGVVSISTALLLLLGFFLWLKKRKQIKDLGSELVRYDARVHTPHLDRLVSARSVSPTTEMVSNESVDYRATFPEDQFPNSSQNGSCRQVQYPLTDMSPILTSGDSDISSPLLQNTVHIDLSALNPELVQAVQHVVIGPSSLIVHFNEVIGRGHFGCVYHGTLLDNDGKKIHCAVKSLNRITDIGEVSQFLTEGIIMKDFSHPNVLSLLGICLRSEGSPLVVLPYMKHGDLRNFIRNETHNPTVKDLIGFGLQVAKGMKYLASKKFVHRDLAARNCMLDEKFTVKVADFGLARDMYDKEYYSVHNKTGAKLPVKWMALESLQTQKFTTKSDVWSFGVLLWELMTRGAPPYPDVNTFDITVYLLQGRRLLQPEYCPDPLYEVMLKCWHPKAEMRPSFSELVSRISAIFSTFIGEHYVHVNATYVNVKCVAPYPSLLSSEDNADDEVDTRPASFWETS
T1 sequence (P08581 25-307 limits assumed): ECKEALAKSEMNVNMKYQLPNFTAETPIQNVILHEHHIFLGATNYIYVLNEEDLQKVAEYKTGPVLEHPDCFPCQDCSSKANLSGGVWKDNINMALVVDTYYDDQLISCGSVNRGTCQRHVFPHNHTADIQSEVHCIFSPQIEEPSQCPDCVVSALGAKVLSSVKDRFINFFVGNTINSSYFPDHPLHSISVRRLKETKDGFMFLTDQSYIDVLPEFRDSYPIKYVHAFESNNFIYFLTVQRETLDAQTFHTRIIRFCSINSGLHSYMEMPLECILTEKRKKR

- remaining after exposure ([2]; simulated gastric fluid): 7.8%
- remaining after exposure ([2]; simulated intestinal fluid): 0.1%
- Cmax, ng/g ± SEM [3]: 7.9 ± 2.3 ng/g
SMILES: CCCCCC(=O)N[C@@H](Cc1ccc(O)cc1)C(=O)N[C@H](C(=O)NCCCCCC(N)=O)[C@@H](C)CC [fosgo-AM] (Hexanoyl-Tyr-Ile-[Ahx]-NH2)
- enhancement of pMET levels in the presence of low HGF (MET receptor): most potent positive modulator of HGF/MET
- escape latency ([1]; 8-day acquisition, scopolamine ICV): reduced escape latency over time
- frequency of entering the platform zone [1, 4]: significantly improved
- mean distance from the center of the platform [1, 4]: significantly improved
- percentage of time spent in the platform zone [1, 4]: significantly improved
